In brackets after ≈: the same amount, converted by molar mass. Like-named read-outs stand apart in the source and are kept apart here.
Columns and labels:
Fusarium avenaceum [1] = test: mycelial growth inhibition on potato dextrose agar; assay type: cell-based; settings: in vitro; at the same concentrations as the dithiocarbamate (100 ppm)
Drechslera sp. = test: mycelial growth inhibition on potato dextrose agar; assay type: cell-based; settings: for EC50: estimated; for inhibition at 50 µg/mL: 480 h, 50 μg/mL, day 20, read-out: colonies inhibited; for inhibiting fungus: at all experimental concentrations
Method: (§1) Alternaria alternata, Epicoccum nigrum, Pestalotia guepinii, Drechslera sp., and Fusarium avenaceum were isolated from infected leaves and roots of C. acuminata. The strains were cultured and maintained on potato dextrose agar (PDA) medium.
(§2) CPT, trifolin, and hyperoside (isolated from Camptotheca as above) were tested for their ability to inhibit these fungi, as compard with two classical fungicides, Bravo (active ingredient: chlorothalonil) and Maneb (active ingredient: manganous ethylenebis [dithiocarbamate]), as references. The concentrations of the conventional fungicides were those recommended by the manufacturers (Bravo: 10,000 μg/mL; Maneb: 3,000 μg/mL).
(§3) In addition to a negative control (0) and two fungicides as positive controls for each of the five isolated pathogens, seven levels of CPT were tested with each of the fungi and three levels of trifolin and hyperoside were tested with P. guepinii, Drechslera sp. and F. avenaceum, respectively (see FIG. 8).
(§4) Trifolin and hyperoside treatments were applied at concentrations of 50, 100, and 150 μg/mL, respectively. For all cultures, final concentrations were made in molten (50° C.) potato dextrose agar (Difco), and 10 mL aliquots were poured into Petri dishes (85 mm in diameter). Within 24 hours after pouring, each of the plates was inoculated with one of the five fungi. One 5×5 mm mycelial plug was cut from the actively growing front of a 2 week old colony, then placed with the inoculum side down in the center of each treatment plate. The cultures were incubated at 24° C. For all experiments, five replicate plates were inoculated for each treatment.
(§5) Mycelial growth on each plate was observed daily and recorded on a transparent film for the first two weeks, then recorded on the 16th, 20th, 23rd, and 28th days. Colony radii were measured along four vertical radial directions. The mean of the four measurements was calculated as the growth rate on each plate. Mean and standard error were calculated from the five replicates of each treatment. For each of the fungi, values of EC50 (effective concentration that caused 50% inhibition of mycelial growth) and MIC (the minimum inhibitory concentration) of each compound were estimated.

Fusarium avenaceum [2] = test: mycelial growth inhibition on potato dextrose agar; assay type: cell-based; settings: for inhibition at 50 µg/mL / inhibition at 100 µg/mL: 672 h, day 28, read-out: inhibited fungal growth; for inhibition at 50 µg/mL: 50 μg/mL; for inhibition at 100 µg/mL: 100 μg/mL; for EC50: F. avenaceum, estimated, read-out: EC50 (effective concentration that caused 50% inhibition of mycelial growth); for inhibiting fungus: at all experimental concentrations; for inhibition at 10 µg/mL: read-out: inhibition of mycelial growth, CPT 10 μg/mL
Method: as §1, §2, §3, §4, §5

Pestalotia guepinii [3] = test: mycelial growth inhibition on potato dextrose agar; assay type: cell-based; settings: for inhibition at 50 µg/mL: 264 h, 50 μg/mL, day 11, read-out: colonies inhibited; for EC50: read-out: EC50 (effective concentration that caused 50% inhibition of mycelial growth); for MIC: read-out: MIC (minimal inhibitory concentration)
F. verticillioides = settings: cited from earlier work
Alternaria mali = settings: mycelial growth; cited from earlier work
[4] = test system: F. oxysporum f.sp. lycopersici; settings: mycelial growth; cited from earlier work
Botrytis cinerea = settings: in vitro tests and TLC bioautography; Sridhar et al. (2003); cited from earlier work
F. oxysporum f. sp. lini = settings: 100 ppm (100 μg/mL); cited from earlier work
Alternaria alternata = test: mycelial growth inhibition on potato dextrose agar; assay type: cell-based
Method: as §1, §2, §3, §4, §5

Epicoccum nigrum = test: mycelial growth inhibition on potato dextrose agar; assay type: cell-based
Method: as §1, §2, §3, §4, §5

Pestalotia guepinii [5] = test: mycelial growth inhibition on potato dextrose agar; assay type: cell-based
Method: as §1, §2, §3, §4, §5

[6] = Drechslera sp., read-out: EC50 (effective concentration that caused 50% inhibition of mycelial growth)
[7] = at relatively higher concentrations

## O=c1c(O[C@@H]2O[C@H](CO)[C@H](O)[C@H](O)[C@H]2O)c(-c2ccc(O)cc2)oc2cc(O)cc(O)c12 [trifolin, kaempferol-3-O-β-D-galactopyranoside]
Fusarium avenaceum [1]
  inhibited growth: 70%
Drechslera sp.; 100 μg/mL, 28-day experiment
  growth inhibition: totally controlled the fungus
Drechslera sp.; 150 μg/mL
  growth inhibition: completely inhibited growth
Drechslera sp.; [6]
  EC50: < 50 µg/mL
Drechslera sp.; Drechslera
  inhibition at 50 µg/mL: 76.1%
Drechslera sp.
  inhibiting fungus: highly effective
Fusarium avenaceum [2]; 150 μg/mL
  growth inhibition: totally controlled the fungus during the entire experiment
Fusarium avenaceum [2]; Fusarium avenaceum
  inhibition at 50 µg/mL: 35.8%
  inhibition at 100 µg/mL: 74.8%
  EC50: 50 to 100 µg/mL (≈ 112 to 223 µM)
Fusarium avenaceum [2]
  inhibiting fungus: highly effective
Pestalotia guepinii [3]
  inhibition at 50 µg/mL: 53.4%
Pestalotia guepinii [3]; P. guepinii, estimated
  EC50: ~50 µg/mL (≈ 112 µM)
Pestalotia guepinii [3]; P. guepinii
  MIC: < 125 µg/mL

## COc1cc(C=O)ccc1O [Vanillin]
F. verticillioides
  MIC: 600 µg/mL (≈ 3940 µM)

## C/C=C\c1cc(OC)c(OC)cc1OC [β-Asarone]
Alternaria mali
  MIC: > 100 µg/mL
[4]
  MIC: > 100 µg/mL

## CC(C)=CCC/C(C)=C/CO [geraniol]
Botrytis cinerea
  minimum concentration (MIC): 160 µg/mL

## COc1cc(C=CC=O)ccc1O [4-hydroxy-3-methoxycinnamaldehyde]
F. verticillioides
  MIC: 400 µg/mL (≈ 2240 µM)

## COc1cc([C@H]2OC[C@H]3[C@@H]2CO[C@H]3c2ccc(O)c(OC)c2)ccc1O (racemic) [(±) pinoresinol]
F. verticillioides
  MIC: 1,000 μg/mL

## O=c1c(O[C@@H]2O[C@H](CO)[C@H](O)[C@H](O)[C@H]2O)c(-c2ccc(O)c(O)c2)oc2cc(O)cc(O)c12 [hyperoside, quercetin-3-O-β-D-galactopyranoside]
Fusarium avenaceum [1]
  inhibited growth: 70%
Drechslera sp.; 100 μg/mL, 28-day experiment
  growth inhibition: little growth by day 28
Drechslera sp.; 150 μg/mL
  growth inhibition: completely inhibited growth
Drechslera sp.; [6]
  EC50: < 50 µg/mL
Drechslera sp.; Drechslera
  inhibition at 50 µg/mL: 74.3%
Drechslera sp.
  inhibiting fungus: highly effective
Fusarium avenaceum [2]; 150 μg/mL
  growth inhibition: completely inhibited fungal growth during the first four weeks
Fusarium avenaceum [2]; Fusarium avenaceum
  inhibition at 50 µg/mL: 31.6%
  inhibition at 100 µg/mL: 72.6%
  EC50: 50 to 100 µg/mL (≈ 108 to 215 µM)
Fusarium avenaceum [2]
  inhibiting fungus: highly effective
Pestalotia guepinii [3]
  inhibition at 50 µg/mL: 53.8%
Pestalotia guepinii [3]; P. guepinii, estimated
  EC50: ~50 µg/mL (≈ 108 µM)
Pestalotia guepinii [3]; P. guepinii
  MIC: < 125 µg/mL

## CCN(CC)C(=S)[S-].[Na+] [N,N-diethyldithiocarbamic acid sodium salt]
F. oxysporum f. sp. lini
  inhibit growth: 7-30%

## CC[C@@]1(O)C(=O)OCc2c1cc1n(c2=O)Cc2cc3ccccc3nc2-1 [CPT, 4(S)-4-ethyl-4-hydroxy-1H-pyrano-(3′,4′:6,7) indolizino (1,2,-b) quinoline-3,14 (4H,12H)-dione]
Fusarium avenaceum [1]
  inhibited growth: 70%
Alternaria alternata; Alternaria alternata, read-out: EC50 (effective concentration that caused 50% inhibition of mycelial growth)
  EC50: < 25 µg/mL
Alternaria alternata; Alternaria alternata, A. alternata, read-out: MIC (minimal inhibitory concentration)
  MIC: 75 µg/mL (≈ 215 µM)
Alternaria alternata; Alternaria alternata, CPT 10 μg/mL, read-out: colonies inhibited
  inhibition at 10 µg/mL: 41 to 66%
Alternaria alternata; CPT 10 μg/mL, control 13 days
  days for mycelium to completely cover the agar surface: 23 days
Alternaria alternata; CPT 25 μg/mL
  day colonies started to grow: second day
Alternaria alternata; CPT 25 μg/mL, 28 days vs. 13 days for control
  colony expansion reduced: 215%
Alternaria alternata; CPT 25 μg/mL, control 13 days
  days to cover the agar surface: 28 days
Alternaria alternata; CPT 25 μg/mL, day 13
  colonies smaller than controls: 52.8%
Alternaria alternata; CPT 75 μg/mL and above
  control of fungal growth: totally controlled
Alternaria alternata; [7]
  suppressing growth: effective
Epicoccum nigrum; CPT 10 μg/mL and 25 μg/mL, 28 days vs. 10 days for control
  delayed mycelial growth: 280%
Epicoccum nigrum; CPT 10 μg/mL and 25 μg/mL, control 10 days
  days to cover agar surface: 28 days
Epicoccum nigrum; CPT 10 μg/mL, day 10
  colonies smaller than controls: 65%
Epicoccum nigrum; CPT 25 μg/mL, day 15
  colony radii: 20 mm
Epicoccum nigrum; CPT 50 μg/mL
  day growth began: 8th day
Epicoccum nigrum; CPT 50 μg/mL, day 20
  colony radii: 8 mm
Epicoccum nigrum; CPT 75 μg/mL and higher
  growth inhibition: totally inhibited growth
Epicoccum nigrum; Epicoccum nigrum, read-out: EC50 (effective concentration that caused 50% inhibition of mycelial growth), E. nigrum, estimated
  EC50: ~10 µg/mL (≈ 28.7 µM)
Epicoccum nigrum; Epicoccum nigrum, CPT 50 μg/mL, read-out: inhibited growth
  inhibition at 50 µg/mL: > 90%
Epicoccum nigrum; Epicoccum nigrum, E. nigrum, read-out: MIC (minimal inhibitory concentration)
  MIC: 75 µg/mL (≈ 215 µM)
Epicoccum nigrum; [7]
  suppressing growth: effective
Drechslera sp.; CPT 100 μg/mL and higher
  growth inhibition: completely inhibited fungal growth
Drechslera sp.; CPT at all experimental levels (10-150 μg/mL) vs Bravo 10,000 μg/mL
  inhibition compared with Bravo: greater inhibition rates than Bravo
Drechslera sp.; Drechslera, read-out: EC50 (effective concentration that caused 50% inhibition of mycelial growth), Drechslera sp.
  EC50: ~10 µg/mL (≈ 28.7 µM)
Drechslera sp.; Drechslera, read-out: MIC (minimal inhibitory concentration)
  MIC: 100 µg/mL (≈ 287 µM)
Drechslera sp.
  inhibiting fungus: highly effective
Fusarium avenaceum [2]; CPT 125 and 150 μg/mL
  growth inhibition: completely inhibited growth
Fusarium avenaceum [2]; Fusarium avenaceum, read-out: MIC (minimal inhibitory concentration; complete inhibition)
  MIC: 125 µg/mL (≈ 359 µM)
Fusarium avenaceum [2]; Fusarium avenaceum, read-out: inhibited the rate of mycelial growth, CPT 30 μg/mL
  inhibition at 30 µg/mL: > 60%
Fusarium avenaceum [2]; Fusarium avenaceum, first several days of the experiment
  inhibition at 10 µg/mL: 70 to 80%
Fusarium avenaceum [2]; Fusarium avenaceum, later stages
  inhibition at 10 µg/mL: ~40%
Fusarium avenaceum [2]
  inhibiting fungus: highly effective
Pestalotia guepinii [5]; CPT 10 μg/mL, 11th day
  reduced mycelial growth: 43.5%
Pestalotia guepinii [5]; CPT 10 μg/mL, control 11th day
  day colonies reached the petri dish margins: 20 days
Pestalotia guepinii [5]; CPT 125 μg/mL and above
  growth inhibition: totally inhibited growth
Pestalotia guepinii [3]
  EC50: ~10 µg/mL (≈ 28.7 µM)
  MIC: 125 µg/mL (≈ 359 µM)

From patent US20070134282A1, “Methods for inhibiting fungal pathogen infestation and propogation” (Stephen F. Austin State University, priority 2005, published 2007)
